Test [1] deals with ascorbate oxidase of microorganism of the genus Trichoderma or Mortierella (JP-A-6-209770). The note with it: data from JP-A-6-209770; cited from earlier work.
In test [2] the test system is L-ascorbate oxidase (ASOD) of Eupenicillium brefeldianum APC-9315, purified native enzyme. Type of test: biochemical. On the procedure: The relative residual activity of ASOD after incubation with various inhibitors at 37° C. for 2 hours.
(§1) To 0.1 ml of a sample to be assayed is added 0.5 ml of 10 mM Na2 HPO4 and 0.45 ml of 0.2M KH2 PO4 containing 1 mM EDTA, and the mixture is mixed and preincubated at 30° C. for 5 minutes. To the mixture is added 0.05 ml of a 10 mM substrate solution of L-ascorbic acid in 0,001N HCl containing 1 mM EDTA, followed by incubation at 30° C. for 10 minutes. The reaction is stopped by addition of 3.0 ml of 0.2N HCl, and a reduction in absorbance at 245 nm is measured. The amount of ASOD in the sample which decomposes 1 μmol of L-ascorbic acid per 1 minute is taken as one unit.

Test [3] has as its system ascorbate oxidase (ASO) from spores of Myrothecium verrucaria. The note with it: data from Nihon Eiyo-Shokuryo Gakkaishi, 40, (1), 47-51 (1987); read-out: Km (L-Ascorbate); cited from earlier work.
Test [4] concerns L-ascorbate oxidase (ASOD) of Eupenicillium brefeldianum APC-9315, purified native enzyme. In words: Michaelis constant (Km) for L-ascorbic acid, spectrophotometry method. Type of test: biochemical. The note with it: by the spectrophotometry method. The protocol:
(8) Michaelis Constant (Km) for L-Ascorbic Acid
4.9×10^-4 M (by the spectrophotometry method)
as §1

Test [5] concerns ascorbate oxidase of microorganism of the genus Trichoderma or Mortierella (JP-A-6-209770). The note with it: data from JP-A-6-209770; read-out: Km (L-Ascorbate); cited from earlier work.
The test system of test [6] is ascorbate oxidase (ASO) of Acremonium sp. HI-25. The note with it: data from Biosci. Biotechnol. Biochem., 56 (6), 847-852 (1992) & JP-A-3-236766; cited from earlier work.
The subject of test [7] is ascorbate oxidase (ASO) from spores of Myrothecium verrucaria. The note with it: data from Nihon Eiyo-Shokuryo Gakkaishi, 40, (1), 47-51 (1987); cited from earlier work.
Test [8] addresses T1, ascorbate oxidase (ASO) of cucumber (Cucumis sativus, UniProt P14133).
T1 construct: cucumbers (T. Nakamura, N. Makino and Y. Ogura, J. Biochem., Vol. 64, p. 189 (1968)); host or cells: enzyme isolated from cucumbers
T1 sequence (P14133 34-587): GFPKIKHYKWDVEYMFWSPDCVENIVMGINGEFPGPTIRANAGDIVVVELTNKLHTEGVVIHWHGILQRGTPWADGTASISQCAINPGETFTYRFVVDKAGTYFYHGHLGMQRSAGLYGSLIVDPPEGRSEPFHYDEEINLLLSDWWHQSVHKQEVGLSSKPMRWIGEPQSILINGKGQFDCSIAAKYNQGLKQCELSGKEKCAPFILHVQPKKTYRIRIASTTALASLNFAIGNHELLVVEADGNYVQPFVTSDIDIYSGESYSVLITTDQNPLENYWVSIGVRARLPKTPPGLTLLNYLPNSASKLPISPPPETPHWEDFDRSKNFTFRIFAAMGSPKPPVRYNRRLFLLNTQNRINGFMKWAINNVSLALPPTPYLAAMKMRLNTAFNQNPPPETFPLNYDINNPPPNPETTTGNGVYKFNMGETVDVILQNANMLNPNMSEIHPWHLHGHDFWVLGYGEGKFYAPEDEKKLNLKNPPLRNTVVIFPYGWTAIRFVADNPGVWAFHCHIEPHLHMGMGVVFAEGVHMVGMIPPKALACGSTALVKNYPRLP
The note with it: data from J. Biochem., 64 189 (1968); cited from earlier work.

Setting [9] is: incubation with inhibitor at 37° C. for 2 hours, inhibitor concentration not printed.

Read-outs that look alike come from different tables or passages of the source.

For `O=C(O)CI` [monoiodoacetic acid], the “Inhibition by inhibitor, in words” value in test [1] is given as “uninhibited”. Besides, in test [2], the Inhibition by inhibitor amounted to 50% and the “Inhibition by inhibitor (relative residual activity), in words” value is recorded as “inhibited partially”.

Turning to `O=C1O[C@H]([C@@H](O)CO)C(O)=C1O` [L-Ascorbic Acid, L-ascorbic acid], the Michaelis constant (Km) in test [3] was 3000 µM; in test [4], 490 µM; in test [5], 700 µM.

For the compound `O[C@H](CS)[C@H](O)CS` (racemic) [dithiothreitol], the “Inhibition by inhibitor (relative residual activity), in words” value in test [2] (setting [9]) was “not substantially inhibited”.

`[N-]=[N+]=[N-]` [sodium azide]: the results for the “Inhibition by inhibitor, in words” value in test [6], in test [7] and in test [8] were “inhibited”, “uninhibited” and “inhibited”, respectively. In addition, the “Inhibition by inhibitor (relative residual activity), in words” value in test [2] (setting [9]) is “not substantially inhibited”; in test [2] (incubation with inhibitor at 37° C. for 2 hours, inhibitor concentration not printed, listed as Sodium Azide), “uninhibited”.

As a reminder, the Km is the substrate concentration at which the rate is half of its maximum.

Values taken from patent publication US5612208A, “Ascorbate oxidase, gene encoding the same, process for producing the same, and reagent composition using the same” (Amano Pharmaceutical Co., Ltd., priority 1994, dated 1997).
